# Experiments:
# gastric acid secretion = assay: inhibition of gastric acid secretion in the rat, duration of activity after subcutaneous administration; assay type: in vivo; conditions: after 6 days, 50 mg/kg
# From the text: A significant advantage of certain of the compounds of the instant invention, particularly those of the Formula I wherein R1 is hydrogen, X is =S(O), R3 is methyl or ethyl, R4 is hydrogen, and R2 is methylthio, ethylthio, or propylthio, is their long duration of activity when administered subcutaneously. Thus, even after 6 days 2[(4-ethylthio-3-ethylpyridin-2-ylmethyl)sulfinyl]-benzimidazole and 2-[(4-ethylthio-3-methylpyridin-2-ylmethyl)sulfinyl]-benzimidazole inhibited gastric acid secretion in the rat 68 and 82%, respectively, when administered subcutaneously at a dose of 50 mg/kg.
# (H^+ -K^+)ATPase = target: T1, (H^+ -K^+)ATPase (Rattus norvegicus, UniProt P09626); assay: in vivo inactivation of (H^+ -K^+)ATPase in the rat; conditions: shown to be the most effective
# T1 construct: from tissue; host or cells: rat, in vivo (endogenous enzyme)
# gastric(H^+ -K^+)ATPase = target: T2, gastric(H^+ -K^+)ATPase (Sus scrofa, UniProt P19156); assay: inhibition of K^+ -dependent ATP hydrolysis by isolated hog gastric membranes enriched with gastric (H^+ -K^+)ATPase; assay type: biochemical; conditions: shown to be the most effective, read-out: ID50 (the source's name)
# T2 construct: isolated hog gastric membranes enriched with gastric(H^+ -K^+)ATPase; from tissue; host or cells: hog gastric membranes
# isolated gastric glands = assay: inhibition of acid secretion in isolated gastric glands of the rabbit; assay type: cell-based; conditions: Oryctolagus cuniculus, shown to be the most effective, read-out: ID50 (the source's name)
# T1 sequence (P09626 2-1033 limits assumed): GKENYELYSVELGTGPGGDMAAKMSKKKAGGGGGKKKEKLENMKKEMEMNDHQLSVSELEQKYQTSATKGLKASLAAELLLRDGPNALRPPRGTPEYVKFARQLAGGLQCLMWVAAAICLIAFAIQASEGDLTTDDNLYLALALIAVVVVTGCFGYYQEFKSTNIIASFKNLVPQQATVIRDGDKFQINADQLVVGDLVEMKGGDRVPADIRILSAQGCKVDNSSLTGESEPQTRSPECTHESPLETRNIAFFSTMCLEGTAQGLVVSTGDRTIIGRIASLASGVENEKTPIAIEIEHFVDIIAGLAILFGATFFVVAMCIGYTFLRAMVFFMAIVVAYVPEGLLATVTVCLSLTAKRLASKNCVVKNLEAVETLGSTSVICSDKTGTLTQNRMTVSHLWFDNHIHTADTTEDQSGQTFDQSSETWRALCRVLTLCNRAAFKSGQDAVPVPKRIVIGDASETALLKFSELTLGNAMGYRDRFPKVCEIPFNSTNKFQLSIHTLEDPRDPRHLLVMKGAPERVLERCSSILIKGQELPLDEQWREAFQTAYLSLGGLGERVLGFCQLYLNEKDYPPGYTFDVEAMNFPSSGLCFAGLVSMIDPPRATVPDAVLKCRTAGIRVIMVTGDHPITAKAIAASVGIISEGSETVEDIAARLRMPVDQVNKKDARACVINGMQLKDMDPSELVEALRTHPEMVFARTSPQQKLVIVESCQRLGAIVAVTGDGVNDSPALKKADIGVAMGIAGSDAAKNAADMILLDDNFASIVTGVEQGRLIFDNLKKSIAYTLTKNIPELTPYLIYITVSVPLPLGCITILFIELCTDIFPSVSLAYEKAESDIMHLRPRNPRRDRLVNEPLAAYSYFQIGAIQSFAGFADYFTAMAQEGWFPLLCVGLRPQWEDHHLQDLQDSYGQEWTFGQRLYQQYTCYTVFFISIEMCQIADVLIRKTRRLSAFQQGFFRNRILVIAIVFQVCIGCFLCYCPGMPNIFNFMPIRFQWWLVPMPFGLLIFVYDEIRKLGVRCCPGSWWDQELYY
# T1 sequence (P18598 whole entry partner): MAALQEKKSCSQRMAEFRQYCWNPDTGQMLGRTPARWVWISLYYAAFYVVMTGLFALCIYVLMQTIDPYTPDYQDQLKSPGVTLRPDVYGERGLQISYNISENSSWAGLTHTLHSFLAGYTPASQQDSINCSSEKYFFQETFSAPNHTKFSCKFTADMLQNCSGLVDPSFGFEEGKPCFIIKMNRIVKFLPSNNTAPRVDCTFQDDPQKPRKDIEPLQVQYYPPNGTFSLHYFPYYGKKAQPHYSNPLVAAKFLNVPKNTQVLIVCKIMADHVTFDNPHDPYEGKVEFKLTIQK
# T2 sequence (P19156 2-1034 limits assumed): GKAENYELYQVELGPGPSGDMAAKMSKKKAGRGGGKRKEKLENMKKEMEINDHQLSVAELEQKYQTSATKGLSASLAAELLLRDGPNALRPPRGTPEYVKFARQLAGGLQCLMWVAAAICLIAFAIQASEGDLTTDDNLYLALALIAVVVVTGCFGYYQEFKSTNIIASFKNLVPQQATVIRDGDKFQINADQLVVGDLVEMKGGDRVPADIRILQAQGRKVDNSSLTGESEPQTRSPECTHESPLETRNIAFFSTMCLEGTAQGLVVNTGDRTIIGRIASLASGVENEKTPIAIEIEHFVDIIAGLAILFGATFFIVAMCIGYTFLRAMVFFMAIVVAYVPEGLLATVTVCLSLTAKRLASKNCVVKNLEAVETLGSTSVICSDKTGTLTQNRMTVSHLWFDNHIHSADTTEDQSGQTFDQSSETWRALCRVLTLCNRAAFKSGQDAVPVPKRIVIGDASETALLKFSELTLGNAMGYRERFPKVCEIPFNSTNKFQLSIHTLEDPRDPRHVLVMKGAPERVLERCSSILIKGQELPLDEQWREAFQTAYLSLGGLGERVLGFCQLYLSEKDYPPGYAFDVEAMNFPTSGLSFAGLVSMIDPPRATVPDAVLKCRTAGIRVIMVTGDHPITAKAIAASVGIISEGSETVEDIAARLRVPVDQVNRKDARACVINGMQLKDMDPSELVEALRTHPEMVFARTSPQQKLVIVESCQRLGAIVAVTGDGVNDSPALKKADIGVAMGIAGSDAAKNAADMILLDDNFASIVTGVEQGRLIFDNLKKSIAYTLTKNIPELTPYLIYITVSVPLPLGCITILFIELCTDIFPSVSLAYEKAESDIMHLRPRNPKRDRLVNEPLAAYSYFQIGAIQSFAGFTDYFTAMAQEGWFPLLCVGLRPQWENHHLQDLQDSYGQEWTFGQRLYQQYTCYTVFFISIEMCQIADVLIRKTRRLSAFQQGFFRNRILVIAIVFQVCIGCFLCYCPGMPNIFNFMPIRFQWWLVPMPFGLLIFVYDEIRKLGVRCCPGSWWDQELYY
# T2 sequence (P18434 whole entry partner): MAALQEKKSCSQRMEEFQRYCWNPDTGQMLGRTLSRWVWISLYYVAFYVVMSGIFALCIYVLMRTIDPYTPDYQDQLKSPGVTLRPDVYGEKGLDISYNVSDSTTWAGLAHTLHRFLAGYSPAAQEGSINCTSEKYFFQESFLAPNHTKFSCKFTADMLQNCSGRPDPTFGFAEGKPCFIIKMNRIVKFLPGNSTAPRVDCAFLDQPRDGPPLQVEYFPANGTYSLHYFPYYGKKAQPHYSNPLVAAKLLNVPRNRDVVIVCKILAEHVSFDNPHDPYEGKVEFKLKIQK
IC50 (gastric(H^+ -K^+)ATPase) [nM],IC50 (isolated gastric glands) [nM],SMILES,inhibition of gastric acid secretion (gastric acid secretion) [%],ED50 ((H^+ -K^+)ATPase) [mg/kg]
–,–,"CCSc1ccnc(C[S+]([O-])c2nc3ccccc3[nH]2)c1C (centres unmarked) [Compound 7, 2-[(4-ethylthio-3-methylpyridin-2-ylmethyl)sulfinyl]-benzimidazole]",82,1
3000,–,"CCc1c(OC)ccnc1C[S+]([O-])c1nc2ccccc2[nH]1 (centres unmarked) [Compound 15, 2-[(4-methoxy-3-ethylpyridin-2-ylmethyl)sulfinyl]-benzimidazole]",–,–
–,100,"CCSc1ccnc(C[S+]([O-])c2nc3ccccc3[nH]2)c1CC (centres unmarked) [Compound 12, 2-[(4-ethylthio-3-ethylpyridin-2-ylmethyl)sulfinyl]-benzimidazole]",68,–
